Read-outs that look alike come from different tables or passages of the source.
Columns and labels:
[1] = target: T1, FLuc-C-HiBiT (firefly luciferase) (Photinus pyralis, UniProt P08659, form not given/L550V); assay: Firefly luciferase (FLuc) enzymatic luminescence assay, FLuc-C-HiBiT; format: biochemical; conditions: FLuc-C-HiBiT qHTS, FLuc enzymatic assay; for IC50: read-out: IC50, FLuc E
Method: (§1) The enzyme activity of FLuc-N-HiBiT, FLuc-C-HiBiT, and FLuc-C-NLuc was measured similar to P. pyralis firefly luciferase (FLuc) as previously described. […] Compounds and controls were added to each plate as described in Supplementary Data 8 with a Hornet pintool system (Wako Automation). Compounds were incubated with respective enzymes for 30–60 min at room temperature protected from light and covered by solid metal lid to prevent evaporation. […] Luciferin was incubated with FLuc enzyme for 5 min before FLuc activity was then measured on a ViewLux CCD imager (PerkinElmer), with exposure times up to ten seconds with medium to high gain settings. Data were normalized to average no enzyme control as 100% enzyme inhibition and average DMSO neutral control. See Supplementary Table 4 for additional details.
(§2) Supplementary Table 4. Protocol for Firefly luciferase (FLuc) and NanoLuc (NLuc) enzymatic
(§3) Supplementary Table 4: Protocol for Firefly luciferase (FLuc) and NanoLuc (NLuc) enzym atic lum inescence assay
(§4) Firefly luciferase (FLuc) enzym atic lum inescence assay
(§5) Sequence Param eter Value Description
(§6) No enzym e control (colum n 1) and enzym e solution (1- 10 nM FLuc enzym e) in FLuc assay
(§7) 1 Reagent 4 µLbuffer; white/solid bottom , m edium bind, high base plates (Greiner), dispensed with BioRaptr
(§8) com pounds transferred to respective colum ns with Pintool
(§9) 2b Test Com pounds 23 nLconcentration range) in colum ns 5- 48; com pounds transferred to respective wells with
(§10) 3 Incubation 30 m in Incubate enzym e + com pounds at am bient tem p for 30 m in, protected from light
(§11) 4 Reagent 3 µLAdd 3 µL of D-luciferin substrate solution to each well (final concentration 10 µM); dispensed
(§12) 5 Detector ViewLux Read plate lum inescence (Exposure = 1- 10 sec; Gain = Medium -high; Speed = Slow;
(§13) Dispensing solution was diluted in 1X PBS, pH 7.4. […]

[2] = target: T1, FLuc-C-HiBiT (firefly luciferase); assay: SDR assay, FLuc-C-HiBiT; conditions: for pSDR50, SDR (+ ATP) / pSDR50, SDR (-ATP) / EC50: FLuc-C-HiBiT qHTS; for Pearson r (SDR+ATP vs. E): correlation of SDR (+ATP) with the FLuc enzymatic assay (E); for Pearson r (SDR-ATP vs. E): correlation of SDR (-ATP) with the FLuc enzymatic assay (E); for % Activity (max response, + ATP) / % Activity (max response, - ATP): SDR max. response, clade S
P. pyralis FLuc = P. pyralis FLuc (Photinus pyralis, UniProt P08659); assay: FLuc enzymatic luminescence assay, P. pyralis FLuc; format: biochemical; set-up: CC-v2: scale not given here; conditions: for Efficacy (%) FLuc E / IC50: FLuc enzymatic assay; for Efficacy (%) FLuc E: Clade S follow-up; for CC-v2 / Efficacy / Hill Coef / Inf Activity / Max Resp / Zero Activity / AC50: Sample Data Type FLuc-Km; for IC50: read-out: IC50 or SDR50 (mM) FLuc E
Sequence of P. pyralis FLuc (P08659 whole entry): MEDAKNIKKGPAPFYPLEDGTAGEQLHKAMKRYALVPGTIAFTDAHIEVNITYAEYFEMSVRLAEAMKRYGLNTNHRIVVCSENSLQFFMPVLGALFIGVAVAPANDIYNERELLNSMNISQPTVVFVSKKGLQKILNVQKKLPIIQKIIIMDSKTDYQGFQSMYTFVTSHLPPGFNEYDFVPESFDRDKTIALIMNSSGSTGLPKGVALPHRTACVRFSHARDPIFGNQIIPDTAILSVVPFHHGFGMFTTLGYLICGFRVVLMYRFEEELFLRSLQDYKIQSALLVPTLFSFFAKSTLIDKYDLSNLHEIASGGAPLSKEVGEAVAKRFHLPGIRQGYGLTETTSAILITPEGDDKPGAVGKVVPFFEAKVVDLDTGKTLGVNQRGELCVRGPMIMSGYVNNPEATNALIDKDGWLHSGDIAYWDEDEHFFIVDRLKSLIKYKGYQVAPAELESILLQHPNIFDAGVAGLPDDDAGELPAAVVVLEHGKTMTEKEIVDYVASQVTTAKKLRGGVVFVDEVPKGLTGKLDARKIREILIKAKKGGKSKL
Method: as §1
Assays were run in the presence (solid symbols) or absence
(open symbols) of 10 µM ATP. Corresponding SMIL E S for NC GC IDs and source data are provided in
Supplementary Data 3 and as a Source Data file. 10
as §2, §3, §4, §5, §6, §7, §8, §9, §10, §11, §12, §13

[3] = target: FLuc-C-NLuc (firefly luciferase) (Photinus pyralis, UniProt P08659, form not given/L550V); assay: SDR assay, FLuc-C-NLuc; conditions: - ATP
Sequence of FLuc-C-NLuc (firefly luciferase) (P08659 2-550 L550V, form open): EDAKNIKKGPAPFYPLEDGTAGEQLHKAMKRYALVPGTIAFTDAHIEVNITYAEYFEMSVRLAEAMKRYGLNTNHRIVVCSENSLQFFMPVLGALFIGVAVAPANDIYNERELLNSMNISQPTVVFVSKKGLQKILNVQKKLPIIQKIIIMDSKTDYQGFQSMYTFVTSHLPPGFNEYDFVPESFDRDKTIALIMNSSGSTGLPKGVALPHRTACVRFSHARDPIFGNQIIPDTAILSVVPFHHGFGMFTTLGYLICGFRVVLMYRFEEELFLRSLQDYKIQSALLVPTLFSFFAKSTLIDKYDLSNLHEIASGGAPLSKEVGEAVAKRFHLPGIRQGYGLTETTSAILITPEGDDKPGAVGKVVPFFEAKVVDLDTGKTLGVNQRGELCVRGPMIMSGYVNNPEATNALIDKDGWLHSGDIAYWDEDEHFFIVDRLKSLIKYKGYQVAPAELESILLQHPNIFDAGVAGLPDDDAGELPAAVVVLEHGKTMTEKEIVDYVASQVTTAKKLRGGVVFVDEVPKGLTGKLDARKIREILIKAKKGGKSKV

FLuc-C-HiBiT = target: T2, FLuc-C-HiBiT (Photinus pyralis, UniProt P08659); assay: biochemical; conditions: enzyme activity, 10 uM ATP; read-out: IC50 or SDR50 (mM) / FLuc E
T2 construct: firefly luciferase with C-terminal HiBiT tag, E. coli expressed
T2 sequence (P08659 whole entry, looked up): as the sequence (P08659 whole entry) above

[4] = read-out: SDR50, SDR (+ ATP), SDR assay with ATP
[5] = read-out: SDR50, SDR (-ATP), SDR assay without ATP

T1 sequence (P08659 2-550 L550V, form open): as the sequence (P08659 2-550 L550V, form open) above

CSc1ccc(/C=C/c2nc3ccccc3n2[S+](=O)([O-])c2ccc(Br)cc2)cc1 [NCGC00108248-01]
pIC50, FLuc E [1]: 6.155 | IC50 [1]: 0.7 µM | pSDR50, SDR (+ ATP) ([2]; SDR assay with ATP): 5.355 | pSDR50, SDR (-ATP) ([2]; SDR assay without ATP): 5.105 | Pearson r (SDR+ATP vs. E) [2]: 0.917 | Pearson r (SDR-ATP vs. E) [2]: 0.903 | EC50 [2, 4]: 4.42 µM | EC50 [2, 5]: 7.85 µM

CC(C)CCNC(=O)C1CCN(C(=O)c2ncn3c2COC(c2ccc(F)cc2)C3)CC1 (centres unmarked) [NCGC00423180-01]
Efficacy (%) FLuc E (P. pyralis FLuc): -22.97% | CC-v2 (P. pyralis FLuc): 4 | Efficacy (P. pyralis FLuc): -22.97 | Hill Coef (P. pyralis FLuc): 2.25 | Inf Activity (P. pyralis FLuc): -22.47 | Max Resp (P. pyralis FLuc): -18.73 | Zero Activity (P. pyralis FLuc): 0.50 | Efficacy (%) FLuc-C-NLuc SDR (-ATP) [3]: 0.00% | % Activity (max response, + ATP) [2]: 35.19% | % Activity (max response, - ATP) [2]: 0.00%

CCOc1ccc(/C=C/c2nc3ccccc3n2[S+](=O)([O-])c2cccc(Cl)c2)cc1 [NCGC00108246-01]
pIC50, FLuc E [1]: 6.405 | IC50 [1]: 0.394 µM | pSDR50, SDR (+ ATP) ([2]; SDR assay with ATP): 5.605 | pSDR50, SDR (-ATP) ([2]; SDR assay without ATP): 5.505 | Pearson r (SDR+ATP vs. E) [2]: 0.892 | Pearson r (SDR-ATP vs. E) [2]: 0.888 | EC50 [2, 4]: 2.48 µM | EC50 [2, 5]: 3.13 µM

CSc1ccc(/C=C/c2nc3ccccc3n2[S+](=O)([O-])c2cccc(Cl)c2)cc1 [NCGC00108250-01]
pIC50, FLuc E [1]: 6.255 | IC50 [1]: 0.556 µM | pSDR50, SDR (+ ATP) ([2]; SDR assay with ATP): 5.705 | pSDR50, SDR (-ATP) ([2]; SDR assay without ATP): 5.705 | Pearson r (SDR+ATP vs. E) [2]: 0.941 | Pearson r (SDR-ATP vs. E) [2]: 0.919 | EC50 [2, 4]: 1.97 µM | EC50 [2, 5]: 1.97 µM

Cc1ccc(C2Cn3cnc(C(=O)N4CCC(C(=O)NCCC(C)C)CC4)c3CO2)cc1 (centres unmarked) [NCGC00422121-01]
Efficacy (%) FLuc E (P. pyralis FLuc): -26.32% | IC50 (P. pyralis FLuc): 0.0139 mM | AC50 (P. pyralis FLuc): 13.9 µM | CC-v2 (P. pyralis FLuc): -2.4 | Efficacy (P. pyralis FLuc): -26.32 | Hill Coef (P. pyralis FLuc): 1.21 | Inf Activity (P. pyralis FLuc): -27.95 | Max Resp (P. pyralis FLuc): -21.63 | Zero Activity (P. pyralis FLuc): -1.63 | Efficacy (%) FLuc-C-NLuc SDR (-ATP) [3]: 0.00% | % Activity (max response, + ATP) [2]: 49.59% | % Activity (max response, - ATP) [2]: 0.00%

CCC(CC)NC(=O)C1CCN(C(=O)c2ncn3c2COC(c2ccc(F)cc2)C3)CC1 (centres unmarked) [NCGC00430454-01]
Efficacy (%) FLuc E (P. pyralis FLuc): -16.84% | CC-v2 (P. pyralis FLuc): 4 | Efficacy (P. pyralis FLuc): -16.84 | Hill Coef (P. pyralis FLuc): 1.51 | Inf Activity (P. pyralis FLuc): -9.34 | Max Resp (P. pyralis FLuc): -6.95 | Zero Activity (P. pyralis FLuc): 7.50 | Efficacy (%) FLuc-C-NLuc SDR (-ATP) [3]: 0.00% | % Activity (max response, + ATP) [2]: 9.00% | % Activity (max response, - ATP) [2]: 0.00%

CC(C)NC(=O)C1CCN(C(=O)c2ncn3c2COC(c2ccccc2)C3)CC1 (centres unmarked) [NCGC00449767-01]
Efficacy (%) FLuc E (P. pyralis FLuc): -88.78% | IC50 (P. pyralis FLuc): 0.00248 mM | AC50 (P. pyralis FLuc): 2.48 µM | CC-v2 (P. pyralis FLuc): -1.1 | Efficacy (P. pyralis FLuc): -88.78 | Hill Coef (P. pyralis FLuc): 1.10 | Inf Activity (P. pyralis FLuc): -90.78 | Max Resp (P. pyralis FLuc): -86.46 | Zero Activity (P. pyralis FLuc): -2.01 | IC50 (FLuc-C-HiBiT): 0.00351 mM | Efficacy (%) FLuc-C-NLuc SDR (-ATP) [3]: 0.00% | % Activity (max response, + ATP) [2]: 350.87% | % Activity (max response, - ATP) [2]: 0.00%

CCn1c(=O)c(C(=O)Nc2ccc(C(C)=O)cc2)nc2ccccc21 [NCGC00107725-01]
IC50 (FLuc-C-HiBiT): 0.0124 mM

Cc1ccc(C(=O)Nc2ccc(-c3nc4ccccc4s3)cc2C)cc1C [NCGC00103062-01]
IC50 (FLuc-C-HiBiT): > 0.03 mM

O=C(CCC[S+](=O)([O-])c1ccc(Cl)cc1)Nc1ccc(O)c(-c2nc3ccccc3s2)c1 [NCGC00347270-01]
IC50 (FLuc-C-HiBiT): > 0.03 mM

COc1cccc(-c2cc3c(=O)n(CCNC(=O)C4CCN(C(C)=O)CC4)ccn3n2)c1 [NCGC00457070-01]
IC50 (FLuc-C-HiBiT): 0.0124 mM

O=C(O)[C@@H]1CN(Cc2ccccc2)C[C@@H]1C(=O)N1CCc2ccccc21 [NCGC00464394-01]
IC50 (FLuc-C-HiBiT): > 0.03 mM

CCc1nn2c(-c3ccco3)ccnc2c1-c1ccc(F)cc1 [NCGC00164922-01]
IC50 (FLuc-C-HiBiT): 0.00785 mM

O=C(Nc1ccccc1C(=O)O)c1ccccc1 [NCGC00245456-03]
IC50 (FLuc-C-HiBiT): 0.0124 mM

Nc1ccc(C(=O)N2CCCn3nc(C(=O)Nc4ccccc4)cc3C2)cn1 [NCGC00432306-01]
IC50 (FLuc-C-HiBiT): 0.0111 mM

Cc1ccc(NC(=O)N2CCC(CCNC(=O)C3CCC3)CC2)cc1F [NCGC00425059-01]
IC50 (FLuc-C-HiBiT): 0.0124 mM

Clc1ccc(OCc2nc3ccccc3n2Cc2ccccc2)c(Cl)c1 [NCGC00098959-01]
IC50 (FLuc-C-HiBiT): 0.007 mM

COc1ccc(C(=O)N2CCc3ccc(C(=O)Nc4ccc5c(c4)OCCO5)cc32)cc1 [NCGC00430278-01]
IC50 (FLuc-C-HiBiT): 0.00556 mM

Cc1ccc(-n2nc(C)c([C@@H]3C=C[C@@H](NC(=O)NCc4ccccc4)C3)c2C)cc1Cl [NCGC00399961-01]
IC50 (FLuc-C-HiBiT): 0.018 mM

Cc1cc(-c2cc3c(cn2)CN(CC(C)C)CCN3)ccn1 [NCGC00411077-01]
IC50 (FLuc-C-HiBiT): 0.0161 mM

COc1ccc(C(=O)NCCC2CCN(C(=O)Nc3cc(F)cc(F)c3)CC2)cc1 [NCGC00425013-01]
IC50 (FLuc-C-HiBiT): 0.00989 mM

CCOC(=O)N1CCc2c(sc(NCc3cccs3)c2C(=O)Nc2ccc(OC)cc2OC)C1 [NCGC00140799-01]
IC50 (FLuc-C-HiBiT): 0.00313 mM

Cc1nn(-c2ccc(C(C)C)cc2)c(C)c1[C@@H]1C=C[C@@H](NC(=O)COCC(=O)O)C1 [NCGC00401626-01]
IC50 (FLuc-C-HiBiT): 0.0202 mM

COc1ccc(-c2cc(N3CCCC(NC(=O)c4ccc(OC)c(OC)c4)C3)[nH]n2)cc1 (centres unmarked) [NCGC00437624-01]
IC50 (FLuc-C-HiBiT): 0.00394 mM

CC(C)C(=O)Nc1cc(-c2nc3ccccc3s2)ccc1Cl [NCGC00596190-01]
IC50 (FLuc-C-HiBiT): > 0.03 mM

CC(C)c1cnc(N2CCC(COc3ccc4c(cnn4CCC(=O)O)c3)CC2)nc1 [NCGC00418130-01]
IC50 (FLuc-C-HiBiT): 0.0202 mM

Cc1c(NC(=O)Cc2ccccc2)cccc1-c1nc2ccccc2s1 [NCGC00595047-01]
IC50 (FLuc-C-HiBiT): 0.0007 mM

Cc1ccc2nc(-c3ccc(NC(=O)COc4ccc(Cl)c(C)c4)cc3)sc2c1 [NCGC00098204-01]
IC50 (FLuc-C-HiBiT): > 0.03 mM

CN1CCN(c2ccc(-c3cc4c(ccn4C)c(C(=O)NCCc4ccccn4)n3)cc2)CC1 [NCGC00411712-01]
IC50 (FLuc-C-HiBiT): 0.00279 mM

CC(C)c1ccc(C2=CC(c3ccc(C(C)C)cc3)n3nnnc3N2)cc1 (centres unmarked) [NCGC00140789-01]
IC50 (FLuc-C-HiBiT): > 0.03 mM

O=C(Nc1ccccc1)c1nc2c(o1)CCN(CC1CC1)CC2 [NCGC00413351-01]
IC50 (FLuc-C-HiBiT): 0.0161 mM

Cc1ccc(NC(=O)c2ccc3c(c2)N(C)C2CCCN2C3=O)cc1C (centres unmarked) [NCGC00452108-01]
IC50 (FLuc-C-HiBiT): 0.0124 mM

Cc1cc(C)cc(C(=O)NCCn2ccn3nc(-c4ccc(C)cc4C)cc3c2=O)c1 [NCGC00456988-01]
IC50 (FLuc-C-HiBiT): 0.007 mM

— paper PMC12064818, “A general assay platform to study protein pharmacology using ligand-dependent structural dynamics” (Nature Communications, 2025)
